Data taken from the supplement of paper PMC10307832.

Assays:
Assay in all cases: relative viability (nuclei count vs DMSO), 5 days (fraction); higher = more cells survive
[1] = compound: CC1=C(C(=O)N2C=CSC2=N1)CCN3CCC(=C(C4=CC=CC=C4)C5=CC=C(C=C5)F)CC3 + COc1cccc2cc(-c3nc([C@H]4CC[C@H](C(=O)O)CC4)n4ncnc(N)c34)[nH]c12 [OSI-027] (partner 0.5 µM)
In short: (§1)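 Relative viability divides the nuclei count in treated wells by that in vehicle wells. Lung cancer cell lines were seeded in 1536-well plates, dosed by pin tool the next day, and fixed and stained after 5 days in one step with final 0.05% Triton X-100, 1% formaldehyde and 1 ug/ml Hoechst. Dosing was a single drug or a fixed anchor-drug dose plus five library-drug doses (not always all listed) in √10 steps, and values are medians of duplicate plates imaged at 4×.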

[2] = compound: CC1=C(C(=O)N2C=CSC2=N1)CCN3CCC(=C(C4=CC=CC=C4)C5=CC=C(C=C5)F)CC3 + CS(=O)(=O)CCNCc1ccc(-c2ccc3ncnc(Nc4ccc(OCc5cccc(F)c5)c(Cl)c4)c3c2)o1 [Lapatinib] (partner 2 µM)
In short: as §1

[3] = compound: CC1=C(C(=O)N2C=CSC2=N1)CCN3CCC(=C(C4=CC=CC=C4)C5=CC=C(C=C5)F)CC3 + C[C@]1(O)C[C@@H](c2nc(-c3ccc4ccc(-c5ccccc5)nc4c3)c3c(N)nccn32)C1 [Linsitinib] (partner 1 µM)
In short: as §1

[4] = compound: CC1=C(C(=O)N2C=CSC2=N1)CCN3CCC(=C(C4=CC=CC=C4)C5=CC=C(C=C5)F)CC3 + Cc1nc(NC(=O)N2CCC[C@H]2C(N)=O)sc1-c1ccnc(C(C)(C)C(F)(F)F)c1 [Alpelisib] (partner 2 µM)
In short: as §1

Cell Line	relative viability ([1]; first compound 0.08 µM)	relative viability ([1]; first compound 0.253 µM)	relative viability ([1]; first compound 0.8 µM)	relative viability ([1]; first compound 2.53 µM)	relative viability ([1]; first compound 8 µM)	relative viability ([2]; first compound 0.08 µM)	relative viability ([2]; first compound 0.253 µM)	relative viability ([2]; first compound 0.8 µM)	relative viability ([2]; first compound 2.53 µM)	relative viability ([2]; first compound 8 µM)	relative viability ([3]; first compound 0.08 µM)	relative viability ([3]; first compound 0.253 µM)	relative viability ([3]; first compound 0.8 µM)	relative viability ([3]; first compound 2.53 µM)	relative viability ([3]; first compound 8 µM)	relative viability ([4]; first compound 0.08 µM)	relative viability ([4]; first compound 0.253 µM)	relative viability ([4]; first compound 0.8 µM)	relative viability ([4]; first compound 2.53 µM)	relative viability ([4]; first compound 8 µM)
NCI-H1734	0.549	0.571	0.564	0.576	0.416	1.08	0.866	0.984	1.33	0.71	0.766	0.825	0.948	1.1	0.429	0.727	0.648	0.718	0.713	0.422
NCI-H1755	0.744	0.861	0.664	0.68	0.672	1.08	1.01	1.05	1.08	0.861	1.04	0.98	0.973	0.981	0.779	0.807	0.856	0.994	1.07	0.69
NCI-H1792	0.596	0.643	0.789	0.566	0.485	1.02	0.401	0.931	0.921	0.489	0.446	0.353	0.606	0.379	0.575	0.679	0.6	0.722	0.611	0.545
NCI-H1793	0.302	0.3	0.261	0.293	0.186	0.793	0.535	0.748	0.864	0.575	0.74	0.819	1.09	0.834	0.437	0.642	0.654	0.663	0.886	0.553
NCI-H1915	0.758	0.599	0.589	0.642	0.464	1.22	1.07	0.959	1.12	0.691	1.16	1.12	1.07	1.18	0.832	1.1	1.11	1.07	1.06	0.782
NCI-H1944	0.408	0.42	0.37	0.426	0.31	1.1	0.904	0.773	1.1	0.898	1.3	1.16	1.07	1.21	1.23	0.917	0.815	0.842	0.865	0.777
NCI-H1975	0.912	0.673	0.679	0.836	0.437	0.97	0.855	0.867	0.891	0.518	0.984	0.817	0.982	0.908	0.519	0.674	0.616	0.656	0.667	0.451
NCI-H1993	0.611	0.498	0.546	0.58	0.626	0.801		0.886	0.706	0.808	0.763		0.67	0.713	0.89	0.683		0.694	0.699	0.669
